Read-outs that look alike come from different tables or passages of the source.
What was measured:
[1] = tested on: undesirable vegetation; assay: Herbicidal activity, comparison X is CF with X is CH; assay type: in vivo; conditions: 1.08 and 1.09 vs 1.21 and 1.22; 1.15 and 1.16 vs 1.23 and 1.24; A is A15
[2] = tested on: Key Broadleaf Weed and Crop Species; assay: Post-emergent Test II herbicidal activity (Table 15); assay type: in vivo; conditions: post-emergence, 336 h, 14 d; for pest or weed control at 35 g/ha: 35 g ai/ha; for pest or weed control at 70 g/ha: 70 g ai/ha; for pest or weed control at 140 g/ha: 140 g ai/ha
Procedure, shortened: (§1)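 Post-emergence spray; seedlings 7-21 d old, 1st-2nd true leaf; 187 L/ha; serial rates 1×-1/16×; solvent blank controls; subirrigated; visual % injury at 14 d.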

[3] = tested on: Key Grass and Sedge Weeds as well as Grass Crops; assay: Post-emergent Test II herbicidal activity (Table 16); assay type: in vivo; conditions: post-emergence, 336 h, 14 d; for pest or weed control at 35 g/ha: 35 g ai/ha; for pest or weed control at 70 g/ha: 70 g ai/ha; for pest or weed control at 140 g/ha: 140 g ai/ha
Procedure, shortened: as §1

[4] = Abutilon theophrasti, velvetleaf (Abutilon theophrasti), read-out: Visual Growth Reduction (%) 14 Days After Application, ABUTH
[5] = Amaranthus retroflexus, redroot pigweed (Amaranthus retroflexus), read-out: Visual Growth Reduction (%) 14 Days After Application, AMARE
[6] = Brassica napus, oilseed rape, canola (Brassica napus), read-out: Visual Growth Reduction (%) 14 Days After Application, BRSNN
[7] = Chenopodium album, lambsquarters (Chenopodium album), read-out: Visual Growth Reduction (%) 14 Days After Application, CHEAL
[8] = Euphorbia heterophylla, wild poinsettia (Euphorbia heterophylla), read-out: Visual Growth Reduction (%) 14 Days After Application, EPHHL
[9] = Helianthus annuus, sunflower (Helianthus annuus), read-out: Visual Growth Reduction (%) 14 Days After Application, HELAN
[10] = Cyperus esculentus, yellow nutsedge (Cyperus esculentus), read-out: Visual Growth Reduction (%) 14 Days After Application, CYPES
[11] = Echinochloa crus-galli, barnyardgrass (Echinochloa crus-galli), read-out: Visual Growth Reduction (%) 14 Days After Application, ECHCG
[12] = Oryza sativa, rice (Oryza sativa), read-out: Visual Growth Reduction (%) 14 Days After Application, ORYSA
[13] = Setaria faberi, giant foxtail (Setaria faberi), read-out: Visual Growth Reduction (%) 14 Days After Application, SETFA
[14] = Triticum aestivum, wheat, spring (Triticum aestivum), read-out: Visual Growth Reduction (%) 14 Days After Application, TRZAS
[15] = Zea mays, maize, corn (Zea mays), read-out: Visual Growth Reduction (%) 14 Days After Application, ZEAMX

| Compound | activity when X is CF compared with X is CH [1] | pest or weed control at 35 g/ha [2, 4] [%] | pest or weed control at 70 g/ha [2, 4] [%] | pest or weed control at 140 g/ha [2, 4] [%] | pest or weed control at 35 g/ha [2, 5] [%] | pest or weed control at 70 g/ha [2, 5] [%] | pest or weed control at 140 g/ha [2, 5] [%] | pest or weed control at 35 g/ha [2, 6] [%] | pest or weed control at 70 g/ha [2, 6] [%] | pest or weed control at 140 g/ha [2, 6] [%] | pest or weed control at 35 g/ha [2, 7] [%] | pest or weed control at 70 g/ha [2, 7] [%] | pest or weed control at 140 g/ha [2, 7] [%] | pest or weed control at 35 g/ha [2, 8] [%] | pest or weed control at 70 g/ha [2, 8] [%] | pest or weed control at 140 g/ha [2, 8] [%] | pest or weed control at 35 g/ha [2, 9] [%] | pest or weed control at 70 g/ha [2, 9] [%] | pest or weed control at 140 g/ha [2, 9] [%] | pest or weed control at 35 g/ha [3, 10] [%] | other results |
| --- | --- | --- | --- | --- | --- | --- | --- | --- | --- | --- | --- | --- | --- | --- | --- | --- | --- | --- | --- | --- | --- |
| Nc1c(F)c(-c2ccc3cc[nH]c3c2)nc(C(=O)O)c1Cl [Compound 1.09] | significant increase in activity | 95 to 100 | 95 to 100 | 95 to 100 | 95 to 100 | 95 to 100 | 95 to 100 | 95 to 100 | 95 to 100 | 95 to 100 | 95 to 100 | 95 to 100 | 95 to 100 | 85 to 94 | 95 to 100 | 95 to 100 | 95 to 100 | 95 to 100 | 95 to 100 | 30 to 44 | pest or weed control at 70 g/ha [3, 10]: 75 to 84%; pest or weed control at 140 g/ha [3, 10]: 85 to 94%; pest or weed control at 35 g/ha [3, 11]: 95 to 100%; pest or weed control at 70 g/ha [3, 11]: 95 to 100%; pest or weed control at 140 g/ha [3, 11]: 95 to 100%; pest or weed control at 35 g/ha [3, 12]: 0 to 29%; pest or weed control at 70 g/ha [3, 12]: 0 to 29%; pest or weed control at 140 g/ha [3, 12]: 0 to 29%; pest or weed control at 35 g/ha [3, 13]: 85 to 94%; pest or weed control at 70 g/ha [3, 13]: 85 to 94%; pest or weed control at 140 g/ha [3, 13]: 85 to 94%; pest or weed control at 35 g/ha [3, 14]: 0 to 29%; pest or weed control at 70 g/ha [3, 14]: 0 to 29%; pest or weed control at 140 g/ha [3, 14]: 0 to 29%; pest or weed control at 35 g/ha [3, 15]: 60 to 74%; pest or weed control at 70 g/ha [3, 15]: 75 to 84%; pest or weed control at 140 g/ha [3, 15]: 75 to 84%; melting point: 138 to 140 °C |
| Nc1c(F)c(-c2ccc3cc[nH]c3c2F)nc(C(=O)O)c1Cl [Compound 1.16, 4-Amino-3-chloro-5-fluoro-6-(7-fluoro-1H-indol-6-yl)picolinic acid] | significant increase in activity | 85 to 94 | 95 to 100 | 95 to 100 | 95 to 100 | 95 to 100 | 95 to 100 | 95 to 100 | 95 to 100 | 95 to 100 | 95 to 100 | 95 to 100 | 95 to 100 | 95 to 100 | 95 to 100 | 95 to 100 | 95 to 100 | 95 to 100 | 85 to 94 | 0 to 29 | pest or weed control at 70 g/ha [3, 10]: 60 to 74%; pest or weed control at 140 g/ha [3, 10]: 85 to 94%; pest or weed control at 35 g/ha [3, 11]: 75 to 84%; pest or weed control at 70 g/ha [3, 11]: 85 to 94%; pest or weed control at 140 g/ha [3, 11]: 95 to 100%; pest or weed control at 35 g/ha [3, 12]: 30 to 44%; pest or weed control at 70 g/ha [3, 12]: 60 to 74%; pest or weed control at 140 g/ha [3, 12]: 60 to 74%; pest or weed control at 35 g/ha [3, 13]: 60 to 74%; pest or weed control at 70 g/ha [3, 13]: 75 to 84%; pest or weed control at 140 g/ha [3, 13]: 85 to 94%; pest or weed control at 35 g/ha [3, 14]: 30 to 44%; pest or weed control at 70 g/ha [3, 14]: 60 to 74%; pest or weed control at 140 g/ha [3, 14]: 60 to 74%; pest or weed control at 35 g/ha [3, 15]: 0 to 29%; pest or weed control at 70 g/ha [3, 15]: 30 to 44%; pest or weed control at 140 g/ha [3, 15]: 60 to 74% |
